# Experimental data reported in patent US9004162B2, “Methods of stimulating acetoclastic methanogenesis in subterranean deposits of carbonaceous material” (Transworld Technologies Inc., priority 2012, dated 2015).
# Test system: microorganism consortium in the subterranean formation
# Method: Field tests were conducted on a mature coal-bed methane natural gas well in the Powder River Basin region in Wyoming. […] Total injection volume was 975,450 gallons of formation water, as well as 575.7 lbs. of sodium acetate trihydrate and 2404.7 lbs. of anhydrous sodium acetate. The effective average concentration of acetate in the injection water was 4.06 mM. In the pretreatment period, well 23M-2283 was used to access a microorganism consortium in the subterranean formation and obtain samples for microorganism population analysis.
compound,measurement,setting,value
"CC(=O)[O-].[Na+] [acetate amendment, sodium acetate]",total microbial population density,"after acetate amendment introduced in situ (effective average 4.06 mM acetate in injection water), pretreatment 4.2×10^4 cells/ml",1.5×10^6 cells/ml
same,acetoclastic methanogens as share of total archaea population,at some points during natural gas recovery operations following the two-week period,~100%
same,acetoclastic methanogens as share of total archaea,"two weeks after introduction of the amendment, pretreatment ~20%",greater than 90%
same,hydrogenotrophic methanogens as share of total archaea,"two weeks after introduction of the amendment, pretreatment ~80%",less than 10%
